# Assay results reported in patent US10385399B2, “Method for determining clinically relevant hypoxia in cancer” (AARHUS UNIVERSITET, priority 2011, dated 2019).
# Tests used:
# [1] = tested on: head and neck cancer patients; conditions: cited from earlier work
# [2] = tested on: head and neck cancer patients; assay: DAHANCA 5 trial: Nimorazole or placebo in conjunction with conventional radiotherapy, loco-regional tumour control; assay type: in vivo, human
# From the text: In order to test the predictive potential for hypoxic modification of radiotherapy obtained by nitroimidazoles, the 15-gene classifier was applied on all 323 HNSCC biopsies from patients enrolled in the DAHANCA 5 trial. […] Overall, the hypoxia classifier categorized 114 tumours (35%) as “more” hypoxic and 209 tumours (65%) as “less” hypoxic. […] No significant difference in loco-regional tumour control could be detected between the two groups if treatment intervention was ignored (p=0.07), (FIG. 3b). […] This hypothesis could not be supported by the 15-gene hypoxia classifier that identified similar relative distribution of “more” hypoxic tumours among the HPV/p16-positive tumours as among the HPV/p16-negative tumours (Table 5). Thus, it appears that the cause for different prognosis must be searched elsewhere and might be related to a reduced number of radio-resistant cancer stem cells in the HPV/p16-positive tumors.
# Hypoxia responsive and pH independent genes were identified by microarray analysis (Affymetrix Human Genome U133 Plus 2.0 Array) of relevant cell lines of squamous cell carcinoma, which were cultured in vitro where microenvironment conditions had been manipulated (0.1% vs. 5% pO2 and 7.4 vs. 6.3 pH). In vivo validation was performed by converting the cell lines into a xenograft model and comparing the gene expression in hypoxic and non-hypoxic tumour areas (Wilcoxon signed rank analysis) guided by a well established hypoxic tracer and [^18F] FAZA. A hypoxia gene expression classifier was build by separating 58 previously hypoxia evaluated formalin fixated paraffin embedded (FFPE) head and neck tumour biopsies into “more” and “less” hypoxic tumours. […] Independent tumours were then to be classified to the group (“more” or “less” hypoxic), in which their gene expression expressed the greatest similarities. The classifier was tested in an independent set of 323 FFPE biopsies of head and neck cancer, were patients had been randomized and treated with either placebo or the hypoxic modifier Nimorazole in conjunction with conventional radiotherapy^4. We verified whether the 15-gene hypoxia classifier could identify a subset of tumours having benefit from Nimorazole in conjunction with radiotherapy, by comparing the clinical outcome and the response to hypoxic modification in the two classified groups with log-rank test, cox-regression analysis and test for interaction.
# In vitro experiments were based on human squamous cell carcinoma cell lines UTSCC5, UTSCC14, UTSCC15 (oral carcinoma), FADUDD (hypopharyngeal carcinoma) and SiHa (uterine cervix carcinoma). Xenograft tumours for in vivo validation were generated with cell lines of UTSCC33, FADUDD or SiHa. The hypoxia classifier was generated from 58 previously hypoxia evaluated head and neck cancer biopsies archived as formalin fixated and paraffin embedded samples (FFPE). To test the prognostic and predictive impact of the developed classifier, we used 323 archival supraglottic larynx or pharynx tumour samples (FFPE) from the randomized, double blinded DAHANCA 5 trial.
# H, N and M areas of the xenograft tumours were compared with the Wilcoxon's signed rank analysis. End point used in the evaluation of the classifier in the independent data set, was actuarial loco-regional tumour control probability at 5 years, defined as complete and persistent disappearance of the disease in the primary tumour (T site) and regional lymph nodes (N site) after radiotherapy. Failure was recorded in the event of recurrent tumour or if the tumour never completely disappeared. Follow-up was completed as part of the original study. […] Patient and tumour characteristics of the “more” and “less” hypoxic” groups divided by the hypoxia classifier were compared using the Chi Squared test for categorical variables. Loco-regional tumour control in the two groups was illustrated with a Kaplan Meier plot and compared using the log-rank test. […]
structure (smiles),measurement,setting,value
"O=[N+]([O-])c1cncn1CCN1CCOCC1 [Nimorazole, 4-[2-(5-nitro-1H-imidazol-1-yl)ethyl]morpholine]",outcome compared to placebo in conjunction with radiotherapy,"[1]; DAHANCA 5 trial as described in the background, head and neck cancer patients",improved outcome
same,effect on loco-regional tumour control of HPV/p16-positive tumors,"[1]; HPV/p16-positive tumours, previously shown in the DAHANCA 5 study",without any beneficial effect
same,"HR (95% CI) loco-regional tumour control, Nimorazole vs placebo","[2]; Cox multivariate analysis, ""Less"" hypoxic group by 15-gene hypoxia classifier",0.97 (0.65-1.44)
same,"HR (95% CI) loco-regional tumour control, Nimorazole vs placebo","[2]; Cox multivariate analysis, ""More"" hypoxic group by 15-gene hypoxia classifier",0.44 (0.27-0.73)
same,"HR (95% CI) loco-regional tumour control, Nimorazole vs placebo","[2]; Cox multivariate analysis, all patients (n = 323)",0.70 (0.51-0.96)
same,"HR (95% CI) loco-regional tumour control, Nimorazole vs placebo","[2]; Univariate analysis, ""Less"" hypoxic group by 15-gene hypoxia classifier (n = 209)",0.85 (0.50-1.38)
same,"HR (95% CI) loco-regional tumour control, Nimorazole vs placebo","[2]; Univariate analysis, ""More"" hypoxic group by 15-gene hypoxia classifier (n = 114)",0.46 (0.29-0.75)
same,"HR (95% CI) loco-regional tumour control, Nimorazole vs placebo","[2]; Univariate analysis, all patients (n = 323), with conventional radiotherapy",0.72 (0.53-0.97)
same,outcome in terms of loco-regional tumour control after radiotherapy vs placebo,"[2]; all 323 HNSCC patients, irrespective of hypoxia classification, p=0.03",significantly improved outcome
same,loco-regional tumour control after 5 years,"[2]; group classified as ""less"" hypoxic, Nimorazole with radiotherapy (vs. 44%, p=0.42)",50%
same,loco-regional tumour control after 5 years,"[2]; group classified as ""more"" hypoxic, Nimorazole with radiotherapy (placebo 18%, p=0.002)",49%
